Columns and labels:
[1] = system: mice with Auto-Immune Alopecia; assay: Hair regrowth in alopecia mice, topical treatment daily for 12 weeks; assay type: in vivo; conditions: for Number of animals per hair regrowth category, Category 0: 0=no hair growth; for Number of animals per hair regrowth category, Category 0 / Number of animals per hair regrowth category, Category 1 / Number of animals per hair regrowth category, Category 2 / Number of animals per hair regrowth category, Category 3 / Number of animals per hair regrowth category, Category 4: six animals per group, topical daily 12 weeks; for Number of animals per hair regrowth category, Category 1: 1=0-25% hair regrowth; for Number of animals per hair regrowth category, Category 2: 2=25-50% hair regrowth; for Number of animals per hair regrowth category, Category 3: 3=50-75% hair regrowth; for Number of animals per hair regrowth category, Category 4: 4=75-100% hair regrowth
Experimental: An animal study was carried out to determine the effect of a CBD nanoparticulate formulation comprising minoxidil as described herein on the induction of hair regrowth in alopecia mice after 12 weeks. In order to collect preliminary information on the reversal of Alopecia by CBD/minoxidil, a randomized pilot study on 24 animals was performed.
Eight- to ten-month-old mice with Auto-Immune Alopecia were randomized into four groups (six animals per group), receiving topical treatments daily for 12 weeks. Group 1 (Control group) received 0.1 ml of control solution applied topically over the ventral area daily for 12 weeks. Group 2 (CBD group) received 20 μg of CBD in 0.1 ml of control solution applied topically over the ventral area daily for 12 weeks. Group 3 (minoxidil) received 0.1 ml of 5% minoxidil solution applied topically over the ventral area daily for 12 weeks. Group 4 (CBD/minoxidil) received 20 μg of CBD and 5% minoxidil in 0.1 ml solution applied topically over the ventral area daily for 12 weeks.
Mice were sacrificed at the end point of a twelve week observation period, and skin biopsies were obtained. Skin biopsies were processed for histopathology.
Reported categories are as follows: 0=no hair growth, 1=0-25% hair regrowth, 2=25-50% hair regrowth, 3=50-75% hair regrowth, 4=75-100% hair regrowth.

[2] = system: CTLL-2 cytotoxic T lymphocytes; assay: In vitro screening platform for immunomodulation (CTLL-2); assay type: cell-based; conditions: CTLL-2, FIG. 4
Experimental: An in vitro screening platform for immunomodulation was used to evaluate nanoparticles for efficacy. CTLL-2 (ATCC®TIB-214™) are cytotoxic T lymphocytes that were purchased and cultured according to ATCC protocol. Once confluent, cells were seeded in a 12-well plate at a concentration of 55,000 cells/mL and treated, in triplicates, with the CBD nanoformulations described herein.
A similar experiment was carried out using CBD alone (not in nanoformulations).
In order to investigate options for improving CBD drug delivery in vitro, CBD was also formulated as a carrier-free nanoparticle and evaluated for efficacy.

[3] = alopecia mice, after 12 weeks, FIG. 6

| SMILES | Number of animals per hair regrowth category, Category 0 [1] | Number of animals per hair regrowth category, Category 1 [1] | Number of animals per hair regrowth category, Category 2 [1] | Number of animals per hair regrowth category, Category 3 [1] | Number of animals per hair regrowth category, Category 4 [1] | effect observed in histopathology [1, 3] | reducing T-lymphocytes compared to controls [2] | hair regrowth, summary ([1]; alopecia mice, 12 weeks topical) | histopathology finding in skin biopsies [1, 3] |
| --- | --- | --- | --- | --- | --- | --- | --- | --- | --- |
| Nc1cc(N2CCCCC2)nc(N)[n+]1[O-] [Minoxidil, minoxidil] | 6 | 0 | 0 | 0 | 0 | No significant effect | – | – | – |
| C=C(C)[C@@H]1CCC(C)=C[C@H]1c1c(O)cc(CCCCC)cc1O [CBD, Cannabidiol] | 6 | 0 | 0 | 0 | 0 | No significant effect | effective | none of the control (vehicle), CBD alone, or minoxidil alone mice showed significant hair regrowth | miniaturization |
